Measurements taken from PubChem BioAssay (NCI).
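A five-concentration, 48-hour dose response in 96-well plates underlies each endpoint, interpolated linearly between surrounding concentrations. TGI marks complete inhibition of growth.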

Tests used:
Assay in all cases: NCI tumour cell line growth inhibition, 48 h
786-0 renal = system: 786-0 renal
A498 renal = system: A498 renal
A549 NSCLC = system: A549 NSCLC
ACHN renal = system: ACHN renal
CAKI-1 renal = system: CAKI-1 renal
CCRF-CEM leukemia = system: CCRF-CEM leukemia
COLO 205 colon = system: COLO 205 colon
DU-145 prostate = system: DU-145 prostate
EKVX NSCLC = system: EKVX NSCLC
HCC-2998 colon = system: HCC-2998 colon
HCT-116 colon = system: HCT-116 colon
HCT-15 colon = system: HCT-15 colon
HL-60(TB) leukemia = system: HL-60(TB) leukemia
HOP-62 NSCLC = system: HOP-62 NSCLC
HOP-92 NSCLC = system: HOP-92 NSCLC
HS 578T breast = system: HS 578T breast
HT29 colon = system: HT29 colon
IGROV1 ovarian = system: IGROV1 ovarian
K-562 leukemia = system: K-562 leukemia
KM12 colon = system: KM12 colon
LOX IMVI melanoma = system: LOX IMVI melanoma
MALME-3M melanoma = system: MALME-3M melanoma
MDA-MB-231 breast = system: MDA-MB-231 breast
MDA-MB-435 = system: MDA-MB-435
MOLT-4 leukemia = system: MOLT-4 leukemia
NCI-H226 lung = system: NCI-H226 lung
NCI-H23 lung = system: NCI-H23 lung
NCI-H460 lung = system: NCI-H460 lung
NCI-H522 lung = system: NCI-H522 lung
NCI/ADR-RES ovarian = system: NCI/ADR-RES ovarian
OVCAR-4 ovarian = system: OVCAR-4 ovarian
OVCAR-5 ovarian = system: OVCAR-5 ovarian
OVCAR-8 ovarian = system: OVCAR-8 ovarian
PC-3 prostate = system: PC-3 prostate
RPMI-8226 leukemia = system: RPMI-8226 leukemia
RXF 393 renal = system: RXF 393 renal
SF-268 CNS = system: SF-268 CNS
SF-295 CNS = system: SF-295 CNS
SF-539 CNS = system: SF-539 CNS
SK-MEL-2 melanoma = system: SK-MEL-2 melanoma
SK-MEL-28 melanoma = system: SK-MEL-28 melanoma
SK-MEL-5 melanoma = system: SK-MEL-5 melanoma
SK-OV-3 ovarian = system: SK-OV-3 ovarian
SN12C renal = system: SN12C renal
SNB-19 CNS = system: SNB-19 CNS
SNB-75 CNS = system: SNB-75 CNS
SR leukemia = system: SR leukemia
SW-620 colon = system: SW-620 colon
T-47D breast = system: T-47D breast
TK-10 renal = system: TK-10 renal
U251 CNS = system: U251 CNS
UACC-257 melanoma = system: UACC-257 melanoma
UACC-62 melanoma = system: UACC-62 melanoma
UO-31 renal = system: UO-31 renal

O=C(N=C1N(c2ccccc2)C(=O)C(=O)N1c1ccccc1)c1ccccc1
TGI (786-0 renal): 12.5 µM
TGI (A498 renal): 39.9 µM
TGI (A549 NSCLC): 20.2 µM
TGI (ACHN renal): 14.3 µM
TGI (CAKI-1 renal): 31.4 µM
TGI (CCRF-CEM leukemia): > 100 µM
TGI (COLO 205 colon): 30 µM
TGI (DU-145 prostate): 43.5 µM
TGI (EKVX NSCLC): 32.1 µM
TGI (HCC-2998 colon): 23.3 µM
TGI (HCT-116 colon): 14.4 µM
TGI (HCT-15 colon): 22.4 µM
TGI (HL-60(TB) leukemia): > 100 µM
TGI (HOP-62 NSCLC): 23.7 µM
TGI (HOP-92 NSCLC): 20.8 µM
TGI (HS 578T breast): 27.2 µM
TGI (HT29 colon): 40.9 µM
TGI (IGROV1 ovarian): 23.5 µM
TGI (K-562 leukemia): > 100 µM
TGI (KM12 colon): 46.9 µM
TGI (LOX IMVI melanoma): 13.6 µM
TGI (MALME-3M melanoma): 38.4 µM
TGI (MDA-MB-231 breast): 18.6 µM
TGI (MDA-MB-435): 99.2 µM
TGI (MOLT-4 leukemia): > 100 µM
TGI (NCI-H226 lung): 29.2 µM
TGI (NCI-H23 lung): 33.6 µM
TGI (NCI-H460 lung): 25.8 µM
TGI (NCI-H522 lung): 6.23 µM
TGI (NCI/ADR-RES ovarian): 25.8 µM
TGI (OVCAR-4 ovarian): 13.3 µM
TGI (OVCAR-5 ovarian): > 100 µM
TGI (OVCAR-8 ovarian): 29.6 µM
TGI (PC-3 prostate): 50.6 µM
TGI (RPMI-8226 leukemia): 74.9 µM
TGI (RXF 393 renal): 13.5 µM
TGI (SF-268 CNS): 50.5 µM
TGI (SF-295 CNS): 25.3 µM
TGI (SF-539 CNS): 26.6 µM
TGI (SK-MEL-2 melanoma): 36.9 µM
TGI (SK-MEL-28 melanoma): 38.1 µM
TGI (SK-MEL-5 melanoma): 32 µM
TGI (SK-OV-3 ovarian): 19.6 µM
TGI (SN12C renal): 24.1 µM
TGI (SNB-19 CNS): 28.1 µM
TGI (SNB-75 CNS): 25.1 µM
TGI (SR leukemia): 41.4 µM
TGI (SW-620 colon): 28.4 µM
TGI (T-47D breast): 56.5 µM
TGI (TK-10 renal): 33.2 µM
TGI (U251 CNS): 24.4 µM
TGI (UACC-257 melanoma): > 100 µM
TGI (UACC-62 melanoma): 30.2 µM
TGI (UO-31 renal): 29 µM
